These are literature values, as cited in patent US6727243B1, “Compositions comprising cefuroxime axetil” (Biochemie Gesellschaft m.b.H., priority 1998, dated 2004).

For this data set the following is noted: oral administration; after consumption of food versus fastened state.

As for `CO/N=C(\C(=O)N[C@@H]1C(=O)N2C(C(=O)OC(C)OC(C)=O)=C(COC(N)=O)CS[C@H]12)c1ccco1` (stereo partly shown) [cefuroxime axetil, 1-acetoxyethyl ester of cefuroxime], the “food effect on bioavailability” value is on record as “exhibit a food effect”.
